Entries after “also recorded” stand apart in the source; their conditions may differ. Structures can show the parent of a compound that is named as a salt.
Columns and labels:
[1] = tested on: SARS-CoV-2_S (D614G)-pseudotyped lentivirus entry into ACE2-overexpressing 293T cells; type: cell-based
[2] = tested on: SARS-CoV-2_S (D614G)-pseudotyped lentivirus entry into ACE2-overexpressing Capan2 cells; type: cell-based

Row | SMILES | inhibiting effect on entry of the pseudovirus (EGFP/mCherry signal ratio) [1] | inhibiting effect on entry of the pseudovirus (EGFP/mCherry signal ratio) [2] | inhibiting effect on entry of the pseudovirus [2]
1 | O=C1c2ccccc2C(=O)c2ccccc21 [TS-1276, anthraquinone] | significant inhibiting effects | did not present any significant inhibiting effects | 
2 | N=C(N)c1ccc2cc(OC(=O)c3ccc(N=C(N)N)cc3)ccc2c1 [Nafamostat mesylate, reference compound] | significant inhibiting effects | exhibited an inhibiting effect; also recorded: block the pseudoviruses from entering | 
3 | O=C(OC[C@H]1O[C@@H](OC(=O)c2cc(O)c(O)c(OC(=O)c3cc(O)c(O)c(O)c3)c2)[C@H](OC(=O)c2cc(O)c(O)c(OC(=O)c3cc(O)c(O)c(O)c3)c2)[C@@H](OC(=O)c2cc(O)c(O)c(OC(=O)c3cc(O)c(O)c(O)c3)c2)[C@@H]1OC(=O)c1cc(O)c(O)c(OC(=O)c2cc(O)c(O)c(O)c2)c1)c1cc(O)c(O)c(OC(=O)c2cc(O)c(O)c(O)c2)c1 [tannic acid, reference compound] |  |  | only a mild inhibiting effect; also recorded: did not observe any significant inhibiting effect
4 | COc1ccc2c3ccnc4ccc(=O)n(c2c1)c43 [TS-984, 9-Methoxycanthin-6-one] | significant inhibiting effects; also recorded: greatly reduce the EGFP/mCherry signal ratio | strongest and was dose-dependent; also recorded: greatly reduce the EGFP/mCherry signal ratio; also recorded: effectively block the entry of pseudovirus into Capan2 cells with ACE2 overexpression in a dose-dependent manner | 

From PMC9281089 (Journal of Translational Medicine, 2022)
